Data as given in BigSolDB 2.1.

Details: in water

CC(C)(C)[C@H](O)[C@H](Cc1ccc(Cl)cc1)n1cncn1 (racemic)
Details | solubility (mole fraction)
278.15 K | 3.96e-05
280.65 K | 5.22e-05
283.15 K | 6.56e-05
285.65 K | 7.76e-05
288.15 K | 8.75e-05
290.65 K | 0.000111
293.15 K | 0.000146
295.65 K | 0.000181
298.15 K | 0.000231
300.65 K | 0.000295
303.15 K | 0.000346
305.65 K | 0.000408
308.15 K | 0.000458
310.65 K | 0.00054
313.15 K | 0.000626
